#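 Cells were grown in 96-well plates and exposed to each compound for 48 hours at five concentrations; endpoints were interpolated linearly between bracketing concentrations, or set to the highest concentration if not reached. GI50 = concentration required for 50% inhibition of growth.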 Active and inactive are the calls of the source. Rule as the data show it: active = GI50 up to about 1.1 µM and inactive = higher. Square brackets hold non-standard residues; d marks the D form. Peptide text beside a SMILES is read from it. 2Nal = N[CH](Cc1ccc2ccccc2c1)C(=O)O
# Assays:
# Experiment in all cases: growth of human tumour cells (NCI), 48 h
# [1] = tested on: KM-20L2
# [2] = tested on: DLD-1
# [3] = tested on: M19-MEL
# [4] = tested on: RXF 631
# [5] = tested on: DMS-273
# [6] = tested on: HOP-18
# [7] = tested on: DMS-114
# [8] = tested on: SNB-78
# [9] = tested on: LXFL 529
SMILES,GI50 [1],GI50 [2],GI50 [3],GI50 [4],GI50 [5],GI50 [6],GI50 [7],GI50 [8],GI50 [9]
COc1cc(C(=O)C/C(CCC(=O)Nc2ccc(Cl)cc2Cl)=N/NC(=O)C(N)=O)ccc1O,> 100 µM (inactive),> 100 µM (inactive),> 100 µM (inactive),> 100 µM (inactive),> 100 µM (inactive),> 100 µM (inactive),> 100 µM (inactive),> 100 µM (inactive),> 100 µM (inactive)
CC(=O)CCC#Cc1ccccc1C(=O)C(C)=[N+]=[N-],79.1 µM (inactive),79.8 µM (inactive),–,–,26.4 µM (inactive),97.1 µM (inactive),12.9 µM (inactive),–,–
CC(C)C(NC(=O)C(CCCCN)NC(=O)C(Cc1c[nH]c2ccccc12)NC(=O)C(Cc1ccc(O)cc1)NC(=O)C(CS)NC(=O)C(N)Cc1ccc2ccccc2c1)C(=O)NC(CS)C(=O)NC(C(N)=O)C(C)O (stereo unspecified) (H-[2Nal]CYWKVCT-NH2; configuration not given here),> 100 µM (inactive),> 100 µM (inactive),> 100 µM (inactive),> 100 µM (inactive),> 100 µM (inactive),> 100 µM (inactive),> 100 µM (inactive),8.15 µM (inactive),> 100 µM (inactive)
Cc1nc2ccc(NCCN(C)C)c3c(=O)c4cc(O)ccc4n1c23,–,0.148 µM (active),1.54 µM (inactive),0.0355 µM (active),0.189 µM (active),–,0.885 µM (active),–,0.752 µM (active)
COc1cc(OC)c(C(=O)c2cccs2)cc1N,> 100 µM (inactive),> 100 µM (inactive),> 100 µM (inactive),> 100 µM (inactive),> 100 µM (inactive),23.7 µM (inactive),> 100 µM (inactive),> 100 µM (inactive),> 100 µM (inactive)
Cc1c(C)c2cc3c(=O)c(CCl)coc3c(C)c2oc1=O,> 100 µM (inactive),–,> 100 µM (inactive),> 100 µM (inactive),–,> 100 µM (inactive),> 100 µM (inactive),> 100 µM (inactive),> 100 µM (inactive)
CC(C)c1cccc(C(C)C)c1NC(=S)Nc1ccccc1,> 100 µM (inactive),> 100 µM (inactive),> 100 µM (inactive),> 100 µM (inactive),> 100 µM (inactive),> 100 µM (inactive),43 µM (inactive),> 100 µM (inactive),> 100 µM (inactive)
NCCNc1ccc(NCCN)c2c1C(=O)c1c(O)ccc(O)c1C2=O,0.0181 µM (active),0.0336 µM (active),0.0197 µM (active),< 0.001 µM (active),< 0.001 µM (active),0.361 µM (active),< 0.001 µM (active),0.207 µM (active),0.00807 µM (active)
COc1cccc(N[C@@H]2c3cc4c(cc3C(c3cc(OC)c(O)c(OC)c3)[C@H]3C(=O)OCC32)OCO4)c1 (stereo partly specified),1.46 µM (inactive),1.58 µM (inactive),0.624 µM (active),–,0.148 µM (active),1.52 µM (inactive),0.578 µM (active),5.36 µM (inactive),–
COc1ccc2c(c1)OCCc1cn[nH]c1-2,54 µM (inactive),36.7 µM (inactive),69 µM (inactive),–,32.2 µM (inactive),30.8 µM (inactive),27.3 µM (inactive),29.1 µM (inactive),–
Cc1ccccc1NC(=O)C(=O)CC(=O)c1ccc([N+](=O)[O-])cc1,> 100 µM (inactive),> 100 µM (inactive),> 100 µM (inactive),> 100 µM (inactive),> 100 µM (inactive),> 100 µM (inactive),> 100 µM (inactive),> 100 µM (inactive),> 100 µM (inactive)

# Reference: ChEMBL document CHEMBL1201862, “PubChem BioAssay data set” (2004)
